Results from publication PMC8998802 (Pain, 2019).

Biological target: δ opioid receptor (DOR) (Homo sapiens, UniProt P41143)
Test: competition radioligand binding vs 3H-diprenorphine, DOR-CHO membranes

Sequence of δ opioid receptor (DOR) (P41143 whole entry): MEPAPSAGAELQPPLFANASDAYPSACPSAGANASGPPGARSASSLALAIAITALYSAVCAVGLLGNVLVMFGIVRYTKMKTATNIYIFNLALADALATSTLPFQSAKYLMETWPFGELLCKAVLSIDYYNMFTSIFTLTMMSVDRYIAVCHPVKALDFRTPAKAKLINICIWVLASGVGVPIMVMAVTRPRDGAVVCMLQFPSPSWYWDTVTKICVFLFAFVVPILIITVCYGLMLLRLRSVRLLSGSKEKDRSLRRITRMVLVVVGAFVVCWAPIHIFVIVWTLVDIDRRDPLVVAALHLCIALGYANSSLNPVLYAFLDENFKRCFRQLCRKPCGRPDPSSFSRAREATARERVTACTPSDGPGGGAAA

Question: With `Cc1noc(C)c1CC(=O)NCc1nc(NCCCc2ccccc2)c2ccccc2n1` [IPPQ, 2-(3,5-dimethylisoxazol-4-yl)-N-((4-((3-phenylpropyl)amino)quinazolin-2-yl)methyl)acetamide] as the molecule, how does the Ki read?
Answer: > 1000 nM
